Consider one compound from PMC5551389 (Nature, 2016).

One data set relates to RSV A2. Kind of data set: microbe, parasite or virus in culture. The format is cell-based. The following applies: human respiratory syncytial virus.
A further data set relates to CHIV. Kind of data set: microbe, parasite or virus in culture. The data set is classed as cell-based. Particulars: Chikungunya virus, U2OS.
Another data set deals with HIV-1. Kind of data set: microbe, parasite or virus in culture. The format is cell-based, human immunodeficiency virus type 1.
The test system of data set [1] is human monocyte-derived macrophages.

For `CCC(CC)COC(=O)[C@H](C)N[P@](=O)(OC[C@H]1O[C@@](C#N)(c2ccc3c(N)ncnn23)[C@H](O)[C@@H]1O)Oc1ccccc1` [GS-5734], the EC50 is 0.019 µM with RSV A2 (HEp-2, read-out: Antiviral activity EC50); above 20 µM with CHIV (read-out: Antiviral activity EC50); above 20 µM in the data set with HIV-1 (Human immunodeficiency virus 1, read-out: Antiviral activity EC50). In addition, the EC90 with RSV A2 (HEp-2, read-out: Antiviral activity EC90) is 0.051 µM; in the data set with CHIV (read-out: Antiviral activity EC90), above 20 µM; in the data set with HIV-1 (Human immunodeficiency virus 1, read-out: Antiviral activity EC90), above 20 µM. In addition, in data set [1], the “Intracellular NTP levels, fold higher than with Nuc” value is listed as “up to 30 fold”.
